Measurements: patent EP1935986B1, “Luminogenic and fluorogenic compounds and methods to detect molecules or conditions” (priority 2005, dated 2006)

Columns and labels:
[1] = target: T1, human recombinant monoamine oxidase B (MAO B) (Homo sapiens, UniProt P27338); assay: One-step fluorogenic MAO assay with MAO-F3; type: biochemical
T1 construct: purchased Sigma Chemical Company M-7441; host or cells: baculovirus infected insect cells (microsomes)
T1 sequence (P27338 1-520): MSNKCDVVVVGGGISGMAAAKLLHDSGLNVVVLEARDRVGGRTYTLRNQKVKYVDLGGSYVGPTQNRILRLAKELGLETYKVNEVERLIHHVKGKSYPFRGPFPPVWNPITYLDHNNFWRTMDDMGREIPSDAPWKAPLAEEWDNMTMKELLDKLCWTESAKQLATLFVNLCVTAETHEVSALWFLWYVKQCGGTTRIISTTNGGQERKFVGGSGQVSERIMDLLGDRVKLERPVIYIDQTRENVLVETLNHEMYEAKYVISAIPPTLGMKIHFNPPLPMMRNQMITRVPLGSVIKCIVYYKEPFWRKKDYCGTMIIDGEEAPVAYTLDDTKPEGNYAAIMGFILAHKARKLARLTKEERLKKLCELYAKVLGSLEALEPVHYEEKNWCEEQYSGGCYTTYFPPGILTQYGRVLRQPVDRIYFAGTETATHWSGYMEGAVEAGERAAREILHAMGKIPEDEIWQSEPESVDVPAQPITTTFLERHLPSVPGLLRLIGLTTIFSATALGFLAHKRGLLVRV
Experimental: (§1) The fluorescent signal was then measured (excitation/emission = 355/460 nm) on a Fluoroskan Ascent plate fluorometer.
(§2) This 90 µl contained 35 µl 200 mM Tricine pH 8.3, 35 µl 200 mM Tricine pH 8.7 (or water), 10 µl 200 mM MgSO4, and 10 µl of each substrate dilution.

[2] = One-step fluorogenic MAO assay with MAO-F3, control wells with H2O instead of MAO (fluorescence of the derivative); type: biochemical
Experimental: as §1, §2

[3] = target: T2, human recombinant monoamine oxidase A (MAO A) (Homo sapiens, UniProt P21397); assay: One-step fluorogenic MAO assay with MAO-F3; type: biochemical; parameters: purchased Sigma Chemical Company M-7316; host or cells: baculovirus infected insect cells (microsomes)
T2 sequence (P21397 1-527): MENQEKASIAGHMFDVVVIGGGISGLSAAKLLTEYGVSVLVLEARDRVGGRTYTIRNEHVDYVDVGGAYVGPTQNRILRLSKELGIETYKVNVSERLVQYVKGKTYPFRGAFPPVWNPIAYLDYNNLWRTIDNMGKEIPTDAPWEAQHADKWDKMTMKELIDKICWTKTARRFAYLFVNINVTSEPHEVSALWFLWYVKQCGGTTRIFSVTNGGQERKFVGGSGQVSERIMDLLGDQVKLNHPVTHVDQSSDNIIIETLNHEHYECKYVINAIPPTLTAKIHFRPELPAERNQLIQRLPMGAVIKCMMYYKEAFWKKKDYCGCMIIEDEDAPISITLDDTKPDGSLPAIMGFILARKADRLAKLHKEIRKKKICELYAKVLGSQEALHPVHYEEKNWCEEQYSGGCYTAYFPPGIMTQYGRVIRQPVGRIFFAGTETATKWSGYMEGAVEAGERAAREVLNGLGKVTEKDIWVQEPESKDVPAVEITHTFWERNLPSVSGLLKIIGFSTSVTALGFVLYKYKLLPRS
Experimental: as §1, §2

QuantiLum Luciferase [4] = target: T3, QuantiLum Luciferase (Photinus pyralis, UniProt P08659); assay: Firefly luciferase reaction with luciferin derivatives: light emission over time (with or without ATP, EDTA, coenzyme A, DTT); type: biochemical; parameters: unit not given here
T3 construct: purchased Promega Corporation E170
Experimental: Gel and HPLC stop solution. Solid EDTA (free acid) was placed in a beaker with water and the pH of the solution adjusted to pH 7.0. The solution was then adjusted in volume to produce a solution 400 mM in EDTA.
Enzyme stop solution. A solution was prepared containing 20 mM Bis Tris, pH 6.5, 2 mM EDTA and 1mg/ml bovine serum albumin.
Reaction buffer (2X). A solution was made containing 100 mM HEPES buffer, pH 8.0; 10 mM MgCl2.
DTT stock. Solid DTT (dithiothreatol) was dissolved in water and then adjusted to pH 8.0 with solid sodium hydroxide. The solution was then adjusted in volume to produce a solution 1 M in DTT.
(§3) After producing the solutions in Table 37, the volume of all reactions was adjusted to 990 µl with water. […] While the light reading was being taken, a 10 µl sample of the reaction was diluted to 500 µl with enzyme stop solution (cooled on ice to 4°C) mixed and placed on ice and a second sample of 90 µl of reaction was added to 10 µl of Gel/HPLC stop and the tube placed at -20°C. A timer was started with the start of the first reaction and the start times of the remaining reactions was noted. At 15, 30, 45 and 60 minutes, each reaction was sampled as above and the light produced in the luminometer tubes was measured. At 7 and 22 minutes, the light produced in the luminometer tubes was read, but the reactions were not sampled.
as §3, with “40,” for “37,”

QuantiLum Luciferase [5] = target: T3, QuantiLum Luciferase; assay: Residual active luciferase after reaction with luciferin derivatives (Steady Glo); type: biochemical, firefly; parameters: unit not given here
Experimental: as §3
After all samples were taken, 50 µl of the sample diluted into enzyme stop solution was mixed with 50 µl of Steady Glo Luciferase Reagent (Promega) and the light produced measured after incubating at room temperature for 10 minutes. This measured the active luciferase in the initial reaction.
as §3, with “40,” for “37,”

[6] = fit of Table 31, fluorescence 355/460 nm

T3 sequence (P08659 whole entry): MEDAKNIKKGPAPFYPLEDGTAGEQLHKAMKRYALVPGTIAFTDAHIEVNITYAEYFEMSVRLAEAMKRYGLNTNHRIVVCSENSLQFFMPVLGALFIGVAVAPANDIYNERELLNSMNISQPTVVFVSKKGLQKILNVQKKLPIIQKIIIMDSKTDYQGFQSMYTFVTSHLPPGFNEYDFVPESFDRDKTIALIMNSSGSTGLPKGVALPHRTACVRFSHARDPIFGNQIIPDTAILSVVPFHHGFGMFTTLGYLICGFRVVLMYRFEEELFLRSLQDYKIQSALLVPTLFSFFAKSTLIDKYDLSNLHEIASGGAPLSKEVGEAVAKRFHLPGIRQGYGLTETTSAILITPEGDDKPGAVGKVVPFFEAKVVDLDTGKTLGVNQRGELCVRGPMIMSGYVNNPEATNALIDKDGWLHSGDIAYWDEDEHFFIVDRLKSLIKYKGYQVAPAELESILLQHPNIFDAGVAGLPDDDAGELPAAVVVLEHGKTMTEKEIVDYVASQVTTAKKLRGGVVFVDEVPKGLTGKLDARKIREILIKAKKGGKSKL

Compound: CNCCCOc1ccc2c(C)cc(=O)oc2c1 [MAO-F3, 7-(4-methyl-3-N-methylaminopropoxy)coumarin]
- relative fluorescent signal, MAO B ([1]; [MAO-F3] 0.21 µM): 202
- relative fluorescent signal, net B ([1]; [MAO-F3] 0.21 µM): 154
- relative fluorescent signal, MAO B ([1]; [MAO-F3] 0.84 µM): 689
- relative fluorescent signal, net B ([1]; [MAO-F3] 0.84 µM): 632
- relative fluorescent signal, MAO B ([1]; [MAO-F3] 3.37 µM): 2198
- relative fluorescent signal, net B ([1]; [MAO-F3] 3.37 µM): 2080
- relative fluorescent signal, MAO B ([1]; [MAO-F3] 6.75 µM): 3683
- relative fluorescent signal, net B ([1]; [MAO-F3] 6.75 µM): 3486
- relative fluorescent signal, MAO B ([1]; [MAO-F3] 13.50 µM): 5239
- relative fluorescent signal, net B ([1]; [MAO-F3] 13.50 µM): 4891
- relative fluorescent signal, MAO B ([1]; [MAO-F3] 26.99 µM): 7468
- relative fluorescent signal, net B ([1]; [MAO-F3] 26.99 µM): 6835
- relative fluorescent signal, MAO B ([1]; [MAO-F3] 53.98 µM): 9885
- relative fluorescent signal, net B ([1]; [MAO-F3] 53.98 µM): 8675
- relative fluorescent signal, MAO B ([1]; [MAO-F3] 215.94 µM): 14149
- relative fluorescent signal, net B ([1]; [MAO-F3] 215.94 µM): 10774
- relative fluorescent signal, MAO B ([1]; [MAO-F3] 431.88 µM): 16590
- relative fluorescent signal, net B ([1]; [MAO-F3] 431.88 µM): 11493
- relative fluorescent signal, MAO B ([1]; [MAO-F3] 863.75 µM): 17322
- relative fluorescent signal, net B ([1]; [MAO-F3] 863.75 µM): 10561
- signal-to-background ratios at the Km values ([1]; fit of Table 31): about 13
- Km [1, 6]: 16 ± 1 µM
- relative fluorescent signal, no MAO ([2]; [MAO-F3] 0.21 µM): 48
- relative fluorescent signal, no MAO ([2]; [MAO-F3] 0.84 µM): 57
- relative fluorescent signal, no MAO ([2]; [MAO-F3] 3.37 µM): 118
- relative fluorescent signal, no MAO ([2]; [MAO-F3] 6.75 µM): 197
- relative fluorescent signal, no MAO ([2]; [MAO-F3] 13.50 µM): 348
- relative fluorescent signal, no MAO ([2]; [MAO-F3] 26.99 µM): 633
- relative fluorescent signal, no MAO ([2]; [MAO-F3] 53.98 µM): 1210
- relative fluorescent signal, no MAO ([2]; [MAO-F3] 215.94 µM): 3375
- relative fluorescent signal, no MAO ([2]; [MAO-F3] 431.88 µM): 5097
- relative fluorescent signal, no MAO ([2]; [MAO-F3] 863.75 µM): 6761
- relative fluorescent signal, MAO A ([3]; [MAO-F3] 0.21 µM): 240
- relative fluorescent signal, net A ([3]; [MAO-F3] 0.21 µM): 192
- relative fluorescent signal, MAO A ([3]; [MAO-F3] 0.84 µM): 815
- relative fluorescent signal, net A ([3]; [MAO-F3] 0.84 µM): 758
- relative fluorescent signal, MAO A ([3]; [MAO-F3] 3.37 µM): 2604
- relative fluorescent signal, net A ([3]; [MAO-F3] 3.37 µM): 2486
- relative fluorescent signal, MAO A ([3]; [MAO-F3] 6.75 µM): 4129
- relative fluorescent signal, net A ([3]; [MAO-F3] 6.75 µM): 3932
- relative fluorescent signal, MAO A ([3]; [MAO-F3] 13.50 µM): 6078
- relative fluorescent signal, net A ([3]; [MAO-F3] 13.50 µM): 5730
- relative fluorescent signal, MAO A ([3]; [MAO-F3] 26.99 µM): 8461
- relative fluorescent signal, net A ([3]; [MAO-F3] 26.99 µM): 7828
- relative fluorescent signal, MAO A ([3]; [MAO-F3] 53.98 µM): 11555
- relative fluorescent signal, net A ([3]; [MAO-F3] 53.98 µM): 10345
- relative fluorescent signal, MAO A ([3]; [MAO-F3] 215.94 µM): 16721
- relative fluorescent signal, net A ([3]; [MAO-F3] 215.94 µM): 13346
- relative fluorescent signal, MAO A ([3]; [MAO-F3] 431.88 µM): 19530
- relative fluorescent signal, net A ([3]; [MAO-F3] 431.88 µM): 14433
- relative fluorescent signal, MAO A ([3]; [MAO-F3] 863.75 µM): 21154
- relative fluorescent signal, net A ([3]; [MAO-F3] 863.75 µM): 14393
- signal-to-background ratios at the Km values ([3]; fit of Table 31): about 15
- Km [3, 6]: 21 ± 1 µM

Compound: O=C(O)[C@H]1CSC(c2nc3ccc(OCc4ccccc4)cc3s2)=N1 [Luc'in BE]
- Light reading at time (QuantiLum Luciferase [4]; +Co A, 7 min): 11.92
- Light reading at time (QuantiLum Luciferase [4]; +Co A, 22 min): 9.941
- Light reading at time (QuantiLum Luciferase [4]; +CoA, 0 min): 139.5
- Light reading at time (QuantiLum Luciferase [4]; +CoA, 15 min): 10.99
- Light reading at time (QuantiLum Luciferase [4]; +CoA, 30 min): 7.379
- Light reading at time (QuantiLum Luciferase [4]; +CoA, 45 min): 7.284
- Light reading at time (QuantiLum Luciferase [4]; +CoA, 60 min): 6.433
- Light reading at time (QuantiLum Luciferase [4]; +DTT, 0 min): 948
- Light reading at time (QuantiLum Luciferase [4]; +DTT, 7 min): 532.8
- Light reading at time (QuantiLum Luciferase [4]; +DTT, 15 min): 417
- Light reading at time (QuantiLum Luciferase [4]; +DTT, 22 min): 369.5
- Light reading at time (QuantiLum Luciferase [4]; +DTT, 30 min): 331.6
- Light reading at time (QuantiLum Luciferase [4]; +DTT, 45 min): 273.5
- Light reading at time (QuantiLum Luciferase [4]; +DTT, 60 min): 226.9
- Light reading at time (QuantiLum Luciferase [4]; No addition, 0 min): 135.2
- Light reading at time (QuantiLum Luciferase [4]; No addition, 7 min): 22.61
- Light reading at time (QuantiLum Luciferase [4]; No addition, 15 min): 12.79
- Light reading at time (QuantiLum Luciferase [4]; No addition, 22 min): 9.256
- Light reading at time (QuantiLum Luciferase [4]; No addition, 30 min): 6.928
- Light reading at time (QuantiLum Luciferase [4]; No addition, 45 min): 4.879
- Light reading at time (QuantiLum Luciferase [4]; No addition, 60 min): 3.311
- Light reading at time (QuantiLum Luciferase [4]; w/o ATP, 0 min): 0.015
- Light reading at time (QuantiLum Luciferase [4]; w/o ATP, 7 min): 0
- Light reading at time (QuantiLum Luciferase [4]; w/o ATP, 15 min): 0.008
- Light reading at time (QuantiLum Luciferase [4]; w/o ATP, 22 min): 0.005
- Light reading at time (QuantiLum Luciferase [4]; w/o ATP, 30 min): 0
- Light reading at time (QuantiLum Luciferase [4]; w/o ATP, 45 min): 0
- Light reading at time (QuantiLum Luciferase [4]; w/o ATP, 60 min): 0.01
- Light reading from residual active enzyme at time (QuantiLum Luciferase [5]; +CoA, 0 min): 186.7
- Light reading from residual active enzyme at time (QuantiLum Luciferase [5]; +CoA, 15 min): 179.6
- Light reading from residual active enzyme at time (QuantiLum Luciferase [5]; +CoA, 30 min): 179.4
- Light reading from residual active enzyme at time (QuantiLum Luciferase [5]; +CoA, 45 min): 157.9
- Light reading from residual active enzyme at time (QuantiLum Luciferase [5]; +CoA, 60 min): 161.8
- Light reading from residual active enzyme at time (QuantiLum Luciferase [5]; No addition, 0 min): 129.7
- Light reading from residual active enzyme at time (QuantiLum Luciferase [5]; No addition, 15 min): 69.9
- Light reading from residual active enzyme at time (QuantiLum Luciferase [5]; No addition, 30 min): 47.31
- Light reading from residual active enzyme at time (QuantiLum Luciferase [5]; No addition, 45 min): 37.94
- Light reading from residual active enzyme at time (QuantiLum Luciferase [5]; No addition, 60 min): 29.08
- Light reading from residual active enzyme at time (QuantiLum Luciferase [5]; w/o ATP, 0 min): 168.3
- Light reading from residual active enzyme at time (QuantiLum Luciferase [5]; w/o ATP, 15 min): 174.1
- Light reading from residual active enzyme at time (QuantiLum Luciferase [5]; w/o ATP, 30 min): 171.7
- Light reading from residual active enzyme at time (QuantiLum Luciferase [5]; w/o ATP, 45 min): 172.9
- Light reading from residual active enzyme at time (QuantiLum Luciferase [5]; w/o ATP, 60 min): 164
